This passage reports EC50 results from paper PMC5896744 (The Biochemical journal, 2017).

Holding throughout (test): SPR solution competition
Format in all cases: binding

In test [1] the target is PKA hRIα CNB-B (234–381) (Homo sapiens, UniProt P10644).
The target in test [2] is PKA hRIα CNB-A (115–274) (Homo sapiens, UniProt P10644, T192R).
Test [3] deals with PKA hRIα CNB-A (115–274) (Homo sapiens, UniProt P10644).
Test [4] addresses PKA hRIα CNB-B (234–381) (Homo sapiens, UniProt P10644, G316R).
Test [5] has as its target PKA hRIα CNB-B (234–381) (Homo sapiens, UniProt P10644, A336T/G316R).
For test [6], the target named is PKA hRIα CNB-B (234–381) (Homo sapiens, UniProt P10644, A336T/G316R/V315L).
The target in test [7] is PKA hRIα CNB-B (234–381) (Homo sapiens, UniProt P10644, V315L).
The target in test [8] is PKA hRIα CNB-A (115–274) (Homo sapiens, UniProt P10644, A212T).
Test [9] deals with PKA hRIα CNB-B (234–381) (Homo sapiens, UniProt P10644, G316R/V315L).
Test [10] has as its target PKA hRIα CNB-B (234–381) (Homo sapiens, UniProt P10644, A336T).
The target of test [11] is PKA hRIα CNB-A (115–274) (Homo sapiens, UniProt P10644, A212T/T192R).

Regarding `O=c1[nH]cnc2c1ncn2[C@@H]1O[C@@H]2COP(=O)(O)O[C@H]2[C@H]1O` [cIMP], the concentration giving a half-maximal response (EC50) was determined as 114 ± 51 nM on PKA hRIα CNB-B (234–381) [1], 156 ± 5 nM on PKA hRIα CNB-A (115–274) [2], 273 ± 16 nM on PKA hRIα CNB-A (115–274) [3] and 25 ± 9 nM at PKA hRIα CNB-B (234–381) [4].

As to `Nc1nc2c(ncn2[C@@H]2O[C@@H]3COP(=O)(O)O[C@H]3[C@H]2O)c(=O)[nH]1` [cGMP], the EC50 is 0.4 ± 0.1 nM at PKA hRIα CNB-B (234–381) [5]; 1530 ± 53 nM at PKA hRIα CNB-A (115–274) [2]; 0.6 ± 0.3 nM at PKA hRIα CNB-B (234–381) [6]; 98 ± 41 nM at PKA hRIα CNB-B (234–381) [4]; 678 ± 100 nM at PKA hRIα CNB-B (234–381) [7]; 83 ± 33 nM on PKA hRIα CNB-A (115–274) [8]. The EC50 turned out to be 66 ± 2 nM on PKA hRIα CNB-B (234–381) [9], 2 ± 0.1 nM on PKA hRIα CNB-B (234–381) [10] and 24 ± 5 nM at PKA hRIα CNB-A (115–274) [11].

The EC50 is the concentration that produces a half-maximal response. Read a low EC50 as higher potency in that assay.
